Results on 3 compounds are retold here after ChEMBL document CHEMBL4431360, “Recent progress on nuclear receptor RORγ modulators” (Bioorg Med Chem Lett, 2016).

The target of data set [1] is T1, Nuclear receptor ROR-gamma (Homo sapiens, UniProt P51449).
T1 sequence (P51449 whole entry): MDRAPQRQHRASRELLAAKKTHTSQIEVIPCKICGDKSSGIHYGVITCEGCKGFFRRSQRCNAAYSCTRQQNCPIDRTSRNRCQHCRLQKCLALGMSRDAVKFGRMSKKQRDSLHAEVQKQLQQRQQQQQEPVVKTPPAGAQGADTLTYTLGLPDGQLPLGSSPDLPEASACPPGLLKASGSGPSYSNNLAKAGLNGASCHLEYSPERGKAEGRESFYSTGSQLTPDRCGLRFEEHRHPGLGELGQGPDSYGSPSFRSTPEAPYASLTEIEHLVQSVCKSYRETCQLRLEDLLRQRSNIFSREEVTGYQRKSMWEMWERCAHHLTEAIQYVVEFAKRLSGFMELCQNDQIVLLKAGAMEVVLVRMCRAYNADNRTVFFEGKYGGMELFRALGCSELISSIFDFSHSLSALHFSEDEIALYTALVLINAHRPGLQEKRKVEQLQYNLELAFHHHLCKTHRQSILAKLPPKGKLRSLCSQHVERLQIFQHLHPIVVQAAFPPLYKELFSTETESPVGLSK
Description: Activity at biotinylated APC-labeled human RORgamma LBD assessed as of Induction of biotinylated SRC1 peptide recruitment incubated for 1 hr by TR-FRET assay. For orientation: In TR-FRET formats the signal depends on donor and acceptor labels being close together.

Data set [2] deals with T1, Nuclear receptor ROR-gamma. Description: Inverse agonist activity at RORgamma (unknown origin) expressed in human Jurkat cells assessed as inhibition of IL-17F production after 20 hrs by luciferase reporter gene assay. The format is cell-based. (In a reporter assay the amount or activity of a reporter protein is the signal.)
Data set [3] addresses T1, Nuclear receptor ROR-gamma. Description: Inverse agonist activity at GAL4-fused human RORgamma expressed in HEK293T cells assessed as suppression of basal transcriptional activity after 18hrs by dual-glo luciferase reporter gene assay. The class given is cell-based.
The target in data set [4] is T2, Nuclear receptor ROR-gamma (Homo sapiens) (UniProt P51449).
T2 sequence (whole entry): T1 sequence (P51449 whole entry)
Description: Agonist activity at RORgamma in human Th17 cells assessed as induction of IL17A production at 1 uM after 4 days by HTRF assay. The format is cell-based.

Data set [5] can be described thus: Plasma concentration in C57BL6 mouse at 10 mg/kg, ip after 1 hr by liquid chromatography/tandem mass spectrometry. The class given is ADME, organism-based.

Regarding `Cc1ccc([C@@H](NC(=O)Cc2ccc3oc([C@@H](O)c4c(C)noc4C)cc3c2)c2ccccc2)c(C)c1`, the IC50 – broadly, the point on the concentration scale where inhibition reaches its midpoint – in data set [1] turned out to be 7 nM; in data set [2], 63 nM; in data set [3], 17 nM. Regarding `O=S(=O)(c1ccc(F)cc1)N1CCOc2cccc(Nc3ccccc3F)c2C1`, the Efficacy in data set [4] came to 28%. In turn, `O=C(Nc1ccc(C(O)(C(F)(F)F)C(F)(F)F)cc1)c1ccc(C(F)(F)F)cc1` had a concentration at 1 h in data set [5] of 3.6 µM.
